Results as given in patent US6869955B2, “Tetrahydropteridines and pyridylpiperazines for treatment of neurological disorders” (Bristol-Myers Squibb Pharma Company, priority 1996, dated 2005).

SMILES	melting point [°C]
CCCCN1C(=O)CN2C(=O)CN(c3ccc(C(C)C)cc3Br)c3nc(C)nc1c32 [Example 501, 10-[2-bromo-4-(1-methylethyl)-phenyl]-4-butyl-9,10-dihydro-2-methyl-4H,8H-pyrazino[3,2,1-de]pteridine-5,8(6H)-dione]	207 to 208
CCCCN(CC)c1nc(C)nc2c1NC(=S)CN2c1ccc(C(C)C)cc1Br [Example 131, 8-(2-bromo-4-isopropylphenyl)-4-(ethylbutylamino)-2-methyl-5,6,7,8-tetrahydropteridin-6-thione]	148 to 149
CCCCN(CC)c1nc(C)nc2c1NC(=O)CN2c1ccc(C(C)C)cc1Br [Example 1, 8-(2-bromo-4-isopropylphenyl)-4-(ethylbutylamino)-2-methyl-5,6,7,8-tetrahydropteridin-6-one]	146 to 147
Cc1nc(-c2ccccc2C(F)(F)F)c2c(n1)N(c1ccc(C(C)C)cc1Br)CC(=O)N2 [Example 17, 8-(2-bromo-4-isopropylphenyl)-2-methyl-4-(2-trifluoromethylphenyl)-5,6,7,8-tetrahydropteridin-6-one]	238 to 239
